Active and inactive are the calls of the source. The rule behind the calls is not given here.

Data set [1] deals with T1, Toll-like receptor 7 (Mus musculus, UniProt P58681).
T1 sequence (P58681 whole entry): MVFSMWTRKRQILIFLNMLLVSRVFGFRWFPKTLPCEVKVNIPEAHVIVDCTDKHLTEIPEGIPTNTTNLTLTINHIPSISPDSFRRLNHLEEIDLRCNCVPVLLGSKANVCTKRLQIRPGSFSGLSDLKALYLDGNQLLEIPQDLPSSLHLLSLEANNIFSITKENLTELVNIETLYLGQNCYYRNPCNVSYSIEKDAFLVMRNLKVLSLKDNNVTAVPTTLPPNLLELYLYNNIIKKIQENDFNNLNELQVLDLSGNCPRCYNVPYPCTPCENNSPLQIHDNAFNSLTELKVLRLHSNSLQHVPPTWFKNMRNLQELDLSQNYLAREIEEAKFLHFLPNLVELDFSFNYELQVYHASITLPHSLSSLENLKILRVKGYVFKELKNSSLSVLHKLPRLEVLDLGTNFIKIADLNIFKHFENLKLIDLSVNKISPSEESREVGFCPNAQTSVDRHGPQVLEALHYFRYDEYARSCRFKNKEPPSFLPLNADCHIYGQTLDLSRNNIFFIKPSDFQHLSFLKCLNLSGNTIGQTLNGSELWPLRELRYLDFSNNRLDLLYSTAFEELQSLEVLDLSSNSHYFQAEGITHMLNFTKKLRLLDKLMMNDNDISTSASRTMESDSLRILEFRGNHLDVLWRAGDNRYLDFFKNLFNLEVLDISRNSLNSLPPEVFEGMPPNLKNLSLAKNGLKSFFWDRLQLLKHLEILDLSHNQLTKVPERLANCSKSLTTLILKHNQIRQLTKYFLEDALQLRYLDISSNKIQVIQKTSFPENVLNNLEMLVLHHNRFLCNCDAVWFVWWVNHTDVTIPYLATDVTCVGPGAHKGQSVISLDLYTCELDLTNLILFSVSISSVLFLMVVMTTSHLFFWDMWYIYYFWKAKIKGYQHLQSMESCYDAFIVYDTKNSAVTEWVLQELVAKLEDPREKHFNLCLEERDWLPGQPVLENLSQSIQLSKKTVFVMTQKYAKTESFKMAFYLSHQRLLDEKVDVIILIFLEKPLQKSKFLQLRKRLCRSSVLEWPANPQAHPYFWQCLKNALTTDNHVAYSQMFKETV
The data set can be described thus: Agonist activity at mouse TLR7.

In data set [2] the target is T2, Toll-like receptor 8 (Homo sapiens, UniProt Q9NR97).
T2 sequence (Q9NR97 whole entry): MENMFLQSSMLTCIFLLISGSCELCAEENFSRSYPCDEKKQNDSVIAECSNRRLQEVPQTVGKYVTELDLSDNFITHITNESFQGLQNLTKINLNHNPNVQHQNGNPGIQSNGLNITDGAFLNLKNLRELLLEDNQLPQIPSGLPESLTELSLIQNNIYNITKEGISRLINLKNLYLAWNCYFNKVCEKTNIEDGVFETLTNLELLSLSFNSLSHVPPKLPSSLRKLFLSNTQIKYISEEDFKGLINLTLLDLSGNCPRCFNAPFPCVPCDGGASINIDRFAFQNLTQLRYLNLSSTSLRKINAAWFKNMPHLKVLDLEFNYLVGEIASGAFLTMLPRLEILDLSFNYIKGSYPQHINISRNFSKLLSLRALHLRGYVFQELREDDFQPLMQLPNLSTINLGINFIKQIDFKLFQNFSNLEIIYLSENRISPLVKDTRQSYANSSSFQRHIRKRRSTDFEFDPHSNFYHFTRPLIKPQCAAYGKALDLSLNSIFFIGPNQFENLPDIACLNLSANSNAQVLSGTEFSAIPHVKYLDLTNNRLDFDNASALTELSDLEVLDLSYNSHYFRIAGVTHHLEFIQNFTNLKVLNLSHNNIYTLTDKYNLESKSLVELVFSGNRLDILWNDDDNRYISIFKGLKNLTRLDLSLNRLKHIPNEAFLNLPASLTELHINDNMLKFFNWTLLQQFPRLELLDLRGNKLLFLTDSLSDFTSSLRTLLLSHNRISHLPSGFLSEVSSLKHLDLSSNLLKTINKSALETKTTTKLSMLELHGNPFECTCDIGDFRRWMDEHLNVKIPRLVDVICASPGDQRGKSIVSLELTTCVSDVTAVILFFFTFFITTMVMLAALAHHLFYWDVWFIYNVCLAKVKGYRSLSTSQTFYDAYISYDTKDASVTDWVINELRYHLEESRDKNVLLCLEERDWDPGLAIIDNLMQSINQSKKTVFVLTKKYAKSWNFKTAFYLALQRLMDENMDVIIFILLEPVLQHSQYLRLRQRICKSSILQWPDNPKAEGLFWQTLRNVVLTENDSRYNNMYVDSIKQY
The data set can be described thus: Agonist activity at human TLR8.

Data set [3] in a line: Metabolic stability in mouse liver microsomes assessed as compound remaining. Also: time not given here. The data set is classed as ADME, Microsome. In general terms: Liver microsomes are a subcellular fraction often used to study metabolism.
The nature of data set [4]: in vitro. Conditions: PHA-activated T cells.
Data set [5] concerns the target Voltage-gated inwardly rectifying potassium channel KCNH2 (Homo sapiens, UniProt Q12809). The data set is described as follows: Inhibition of hERG by patch clamp assay. In kind it is toxicity. In general terms: Block of hERG is tested as a sign of cardiac risk.
For data set [6], the target named is Cytochrome P450 3A4 (Homo sapiens, UniProt P08684). The data set can be described thus: Inhibition of CYP3A4 (unknown origin) using 7-benzyloxy-4-(trifluoromethyl)-coumarin as substrate preincubated with compound followed by substrate addition at 30 mins. The data set is classed as ADME.
Data set [7] can be described thus: Metabolic stability in human liver microsomes assessed as compound remaining. Also: time not given here. The data set is classed as ADME, Microsome.
Data set [8] addresses T1, Toll-like receptor 7.
For data set [9], the target named is T3, Toll-like receptor 8 (Homo sapiens) (UniProt Q9NR97).
T3 sequence (whole entry): T2 sequence (Q9NR97 whole entry)
The data set is described as follows: Agonist activity at TLR8 (unknown origin).

Chain of Voltage-gated inwardly rectifying potassium channel KCNH2 (Q12809 whole entry): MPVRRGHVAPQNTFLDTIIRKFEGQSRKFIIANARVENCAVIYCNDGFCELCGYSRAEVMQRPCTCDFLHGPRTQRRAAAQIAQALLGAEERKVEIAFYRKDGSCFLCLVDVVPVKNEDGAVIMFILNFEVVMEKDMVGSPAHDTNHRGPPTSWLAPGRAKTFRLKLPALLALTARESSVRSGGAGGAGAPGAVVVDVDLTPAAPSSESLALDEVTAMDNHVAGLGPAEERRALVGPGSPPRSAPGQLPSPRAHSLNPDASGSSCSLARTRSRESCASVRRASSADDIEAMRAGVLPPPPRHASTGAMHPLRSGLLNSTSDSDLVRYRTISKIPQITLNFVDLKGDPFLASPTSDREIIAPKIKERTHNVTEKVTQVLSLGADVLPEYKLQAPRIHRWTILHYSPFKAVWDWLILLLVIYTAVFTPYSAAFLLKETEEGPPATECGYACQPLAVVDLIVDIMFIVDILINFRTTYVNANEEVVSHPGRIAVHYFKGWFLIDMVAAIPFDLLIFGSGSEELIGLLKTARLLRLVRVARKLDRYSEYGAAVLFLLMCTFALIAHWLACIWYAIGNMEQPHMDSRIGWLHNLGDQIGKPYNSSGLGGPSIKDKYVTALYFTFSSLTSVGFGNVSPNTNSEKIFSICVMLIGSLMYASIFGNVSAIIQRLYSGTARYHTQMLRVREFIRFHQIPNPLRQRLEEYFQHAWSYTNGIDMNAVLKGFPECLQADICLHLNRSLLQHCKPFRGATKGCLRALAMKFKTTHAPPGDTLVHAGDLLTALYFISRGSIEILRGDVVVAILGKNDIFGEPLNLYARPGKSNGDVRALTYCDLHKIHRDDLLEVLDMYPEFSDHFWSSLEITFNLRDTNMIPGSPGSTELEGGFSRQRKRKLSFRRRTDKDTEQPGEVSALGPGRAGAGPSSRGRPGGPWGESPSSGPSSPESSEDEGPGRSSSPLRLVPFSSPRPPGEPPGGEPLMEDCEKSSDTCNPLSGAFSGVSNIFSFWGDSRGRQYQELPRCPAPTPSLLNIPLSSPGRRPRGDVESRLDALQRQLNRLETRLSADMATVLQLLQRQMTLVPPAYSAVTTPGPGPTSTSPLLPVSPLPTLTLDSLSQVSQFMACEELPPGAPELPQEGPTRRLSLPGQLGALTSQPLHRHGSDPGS
Chain of Cytochrome P450 3A4 (P08684 whole entry): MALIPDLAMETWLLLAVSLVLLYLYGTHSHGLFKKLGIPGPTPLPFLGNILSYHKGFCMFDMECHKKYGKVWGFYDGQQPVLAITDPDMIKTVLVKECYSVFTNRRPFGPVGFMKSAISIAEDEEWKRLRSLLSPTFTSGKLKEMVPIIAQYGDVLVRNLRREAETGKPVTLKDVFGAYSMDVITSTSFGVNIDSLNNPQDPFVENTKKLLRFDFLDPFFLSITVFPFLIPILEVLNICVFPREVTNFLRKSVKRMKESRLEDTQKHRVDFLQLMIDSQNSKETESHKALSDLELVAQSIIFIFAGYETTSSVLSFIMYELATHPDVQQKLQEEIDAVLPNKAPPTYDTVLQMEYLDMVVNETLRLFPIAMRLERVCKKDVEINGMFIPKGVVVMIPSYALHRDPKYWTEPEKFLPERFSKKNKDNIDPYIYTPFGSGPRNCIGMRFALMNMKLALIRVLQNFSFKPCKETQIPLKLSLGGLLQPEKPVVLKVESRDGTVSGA

Broadly, the EC50 is the concentration giving half of the maximal effect. A lower EC50 goes with a more potent agent. The term IC50 denotes the midpoint of a concentration-inhibition curve. With `CCCCNc1nc(N)nc2cnn(Cc3ccc(CNC4CCC4)cc3OC)c12`, the figures for the EC50 in data set [1] and in [2] were 0.121 µM and over 5 µM, respectively. For the same compound, the Stability came to 2% in data set [3] and 41% in [7]. The concentration for half-maximal inhibition (IC50) turned out to be 16 µM in data set [4], 18.8 µM in data set [5] and 6.65 µM in data set [6].

The compound `CCC[C@@H](CCO)Nc1nc(N)nc2cnn(Cc3ccc(CNC4CCOCC4)nc3)c12` showed an EC50 in data set [8] of over 5 µM. The Stability in data set [3] was 91%; in data set [7] it was 100%. Moreover, in data set [9], the result was inactive. The concentration for half-maximal inhibition (IC50) in data set [4] was over 25 µM; in data set [5], over 50 µM.

Values taken from ChEMBL document CHEMBL5357068, “Discovery of Novel TLR7 Agonists as Systemic Agent for Combination With aPD1 for Use in Immuno-oncology” (ACS Med Chem Lett, 2024).
